These are literature values, as cited in patent publication US7910108B2, “Sheddase inhibitors combined with CD30-binding immunotherapeutics for the treatment of CD30 positive diseases” (Incyte Corporation, priority 2006, dated 2011).

SMILES strings stand for the structures. Where two headings read alike, the source gives them in different places.

Series [1] concerns CD30. The following applies: in vitro; combined with anti-CD30 immunotoxins.
The subject of series [2] is CD30. As to conditions: in vivo, rodent; administered concomitantly with anti-CD30 immunotoxins.

`CO[C@H](C(=O)NO)[C@@H](CC(C)C)C(=O)N[C@H](C(=O)Nc1ccccn1)C(C)(C)C` [BB-3644]: the “effectiveness of combination versus immunotoxin alone” value with CD30 [1] and with CD30 [2] was “substantially more effective” throughout.
